Experimental data: patent US20110166112A1, “METHOD FOR STIMULATING PLATELET PRODUCTION” (Eisai, Inc., priority 2009, published 2011)

System: subjects with chronic ITP who completed 28 days of study treatment
Assay: Phase 2 6-month rollover study of E5501: effectiveness (durable, transient, overall platelet response, maintenance, steroid use, upward dose titration)
Assay type: in vivo, human
Conditions: for Decreased use of concomitant steroid medication by ≧50%, No / Decreased use of concomitant steroid medication by ≧50%, Yes / Permanently discontinued steroid use, No / Permanently discontinued steroid use, Yes: 6-month rollover, FAS subjects taking steroids at baseline; for subjects who required upward dose titration / durable response rate: 6-month treatment period; for Transient Platelet Response No, %: 'no' includes durable responders
Procedure: This study was a multicenter, parallel-group, rollover study of E5501 in subjects with chronic ITP who were enrolled in and completed 28 days' of study treatment. All subjects who completed the previous study and otherwise met the eligibility criteria for this rollover protocol were enrolled.
Subjects who rolled over from the previous study were treated for an additional 6 months after completing previous study.
Initial dose: Subjects who met the efficacy response in the previous study continued to receive their previous blinded dose at entry into this study.
Dose titration was performed in an open label fashion in 10 mg increments as follows: • Nonresponders, who received initial doses of open-label E5501 10 mg in the previous study, could have their dose increased in 10 mg increments every 14 days to a maximum of 40 mg/day in the absence of platelet response.
Subjects were also permitted to reduce their dose of ITP-directed concomitant therapy (e.g., steroids). The overall goal of any dose modification was to maintain the subject's peripheral platelet count above 50,000/mm^3 and to decrease the need for ITP-directed concomitant medications (if applicable). During any dose modification of study drug or ITP-directed concomitant medications, platelet counts were collected every week. After platelet counts stabilized, platelet count collection reverted to a biweekly schedule.
Assessments: Study subjects were evaluated for safety and efficacy (including platelet count) on day 1 and then biweekly while receiving treatment.
Two primary analysis populations were used to summarize safety and effectiveness: • Safety population: all subjects who received at least 1 dose of study drug and had at least 1 post-treatment safety assessment in either the previous or this study. All safety analyses were performed using this population. • Full Analysis Set (FAS): all subjects who participated in both studies and who had at least one post-treatment effectiveness assessment in this study. All efficacy analyses were performed using this population.
Secondary Endpoints: The secondary endpoints were markers of effectiveness, including: • 1. Changes in platelet count from baselines of the previous study and of this study by study visit; and • 2. Durable platelet response, defined as subjects who had at least 3 platelet count assessments in the last 14 weeks of the 24-week treatment period, and whose platelet count was at a response level for at least 75% of the time in the last 14 weeks during the 24-week treatment period, with no rescue medication used during the 24-week treatment period. Platelet response level was defined as ≧50,000/mm^3 for subjects whose baseline platelet count was <30,000/mm^3 in the previous study or an increase in baseline platelet count of ≧20,000/mm^3 for subjects receiving steroids whose baseline platelet count in the previous study was ≧30,000/mm^3 but <50,000/mm^3; • 3. Transient platelet response, defined as achievement of a response level for any 4 consecutive weeks during the 24-week treatment period without durable platelet response in the absence of any rescue medication; • 4. Overall platelet response (durable platelet response plus transient platelet response); • 5. Maintenance of platelet response, defined as subjects who were responders in the previous study (e.g., responders on day 28 of the previous study) who achieved a durable response in this study and had no upward dose titration of E5501 during this study; • 6. Permanent discontinuation of steroid use, defined as subjects who used steroid medication within the 2-week period before their first dose of study drug in this study, and for whom concomitant steroid medication was discontinued at least 8 weeks before the end of the treatment period; • 7. Reduction of steroid use by at least 50%. […]

[1] = FAS, 501-CL-003 Nonresponders (N = 28)
[2] = FAS, 501-CL-003 Responders (N = 25)
[3] = FAS, <3 Lines of Prior Therapy, E5501 Total, N assessed 18
[4] = FAS, <3 Lines of Prior Therapy, Non-Responders, N assessed 6
[5] = FAS, <3 Lines of Prior Therapy, Responders, N assessed 12
[6] = FAS, Baseline PC >15K/mm^3, E5501 Total, N assessed 38
[7] = FAS, Baseline PC >15K/mm^3, Non-Responders, N assessed 19

SMILES: O=C(Nc1nc(-c2cc(Cl)cs2)c(N2CCN(C3CCCCC3)CC2)s1)c1cnc(N2CCC(C(=O)O)CC2)c(Cl)c1 [E5501, 1-(3-chloro-5-{[4-(4-chlorothiophen-2-yl)-5-(4-cyclohexylpiperazin-1-yl)thiazol-2-yl]carbamoyl}pyridine-2-yl)piperidine-4-carboxylic acid]
- Decreased use of concomitant steroid medication by ≧50%, No (E5501 Total): 11 (45.8) n (%)
- Decreased use of concomitant steroid medication by ≧50%, Yes (E5501 Total): 13 (54.2) n (%)
- Permanently discontinued steroid use, No (E5501 Total): 16 (66.7) n (%)
- Permanently discontinued steroid use, Yes (E5501 Total): 8 (33.3) n (%)
- Decreased use of concomitant steroid medication by ≧50%, No (Nonresponders): 6 (50.0) n (%)
- Decreased use of concomitant steroid medication by ≧50%, Yes (Nonresponders): 6 (50.0) n (%)
- Permanently discontinued steroid use, No (Nonresponders): 8 (66.7) n (%)
- Permanently discontinued steroid use, Yes (Nonresponders): 4 (33.3) n (%)
- Decreased use of concomitant steroid medication by ≧50%, No (Responders): 5 (41.7) n (%)
- Decreased use of concomitant steroid medication by ≧50%, Yes (Responders): 7 (58.3) n (%)
- Permanently discontinued steroid use, No (Responders): 8 (66.7) n (%)
- Permanently discontinued steroid use, Yes (Responders): 4 (33.3) n (%)
- subjects who required upward dose titration (25 responders): 20%
- subjects who required upward dose titration (28 non-responders): 75%
- durable response rate (FAS, all subjects): 52.8%
- durable response rate (FAS, non-responders in previous study): 35.7%
- durable response rate (FAS, responders in previous study): 72.0%
- subjects who achieved an overall platelet response after the titration (13 subjects who required and did receive a dose titration): 76.9%
- median platelet counts maintained throughout the study (FAS): above 50,000 /mm^3
- Upward titration required and implemented, % of subjects (FAS, 501-CL-003 Nonresponders): (47.6) %
- Upward titration required and implemented, n of subjects (FAS, 501-CL-003 Nonresponders): 10/21
- Upward titration required and implemented; subject achieved overall response, % of subjects (FAS, 501-CL-003 Nonresponders): (70.0) %
- Upward titration required and implemented; subject achieved overall response, n of subjects (FAS, 501-CL-003 Nonresponders): 7/10
- Upward titration required, % of subjects [1]: (75.0) %
- Upward titration required, n of subjects [1]: 21
- Upward titration required and implemented, % of subjects (FAS, 501-CL-003 Responders): (60.0) %
- Upward titration required and implemented, n of subjects (FAS, 501-CL-003 Responders): 3/5
- Upward titration required and implemented; subject achieved overall response, % of subjects (FAS, 501-CL-003 Responders): (100.0) %
- Upward titration required and implemented; subject achieved overall response, n of subjects (FAS, 501-CL-003 Responders): 3/3
- Upward titration required, % of subjects [2]: (20.0) %
- Upward titration required, n of subjects [2]: 5
- Durable Platelet Response No, % (FAS, E5501 Total (N=53)): (47.2) %
- Durable Platelet Response Yes, % (FAS, E5501 Total (N=53)): (52.8) %
- Transient Platelet Response Yes, % (FAS, E5501 Total (N=53)): (22.6) %
- With Overall Response No, % (FAS, E5501 Total (N=53)): (24.5) %
- With Overall Response Yes, % (FAS, E5501 Total (N=53)): (75.5) %
- Transient Platelet Response No, % (FAS, E5501 Total (N=53)): (77.4) %
- Durable Platelet Response No, % (FAS, Non-Responders (N=28)): (64.3) %
- Durable Platelet Response Yes, % (FAS, Non-Responders (N=28)): (35.7) %
- Transient Platelet Response Yes, % (FAS, Non-Responders (N=28)): (28.6) %
- With Overall Response No, % (FAS, Non-Responders (N=28)): (35.7) %
- With Overall Response Yes, % (FAS, Non-Responders (N=28)): (64.3) %
- Transient Platelet Response No, % (FAS, Non-Responders (N=28)): (71.4) %
- Durable Platelet Response No, % (FAS, Responders (N=25)): (28.0) %
- Durable Platelet Response Yes, % (FAS, Responders (N=25)): (72.0) %
- Transient Platelet Response Yes, % (FAS, Responders (N=25)): (16.0) %
- With Overall Response No, % (FAS, Responders (N=25)): (12.0) %
- With Overall Response Yes, % (FAS, Responders (N=25)): (88.0) %
- Transient Platelet Response No, % (FAS, Responders (N=25)): (84.0) %
- Upward titration required and implemented, % of subjects (FAS, Total): (50.0) %
- Upward titration required and implemented, n of subjects (FAS, Total): 13/26
- Upward titration required and implemented; subject achieved overall response, % of subjects (FAS, Total): (76.9) %
- Upward titration required and implemented; subject achieved overall response, n of subjects (FAS, Total): 10/13
- Upward titration required, % of subjects (FAS, Total (N = 53)): (49.0) %
- Upward titration required, n of subjects (FAS, Total (N = 53)): 26
- Durable Platelet Response, n (%) with response [3]: 12 (66.7) n (%)
- Overall Platelet Response, n (%) with response [3]: 15 (83.3) n (%)
- Durable Platelet Response, n (%) with response [4]: 3 (50.0) n (%)
- Overall Platelet Response, n (%) with response [4]: 4 (66.7) n (%)
- Durable Platelet Response, n (%) with response [5]: 9 (75.0) n (%)
- Overall Platelet Response, n (%) with response [5]: 11 (91.7) n (%)
- Durable Platelet Response, n (%) with response [6]: 24 (63.2) n (%)
- Overall Platelet Response, n (%) with response [6]: 33 (86.8) n (%)
- Durable Platelet Response, n (%) with response [7]: 9 (47.4) n (%)
- Overall Platelet Response, n (%) with response [7]: 15 (78.9) n (%)
